Data published in patent publication US9708628B2, “Cationic lipid having improved intracellular kinetics” (NOF CORPORATION, priority 2011, dated 2017).

Columns and labels:
HT1080 cells = test: Gene expression by MEND (luciferase assay, RLU/mg protein); type: cell-based; conditions: cationic lipid:SOPE:Chol=3:4:3, PEG2000DSG; pDNA 0.4 μg/well, 24 hr
Method: Using B-2 (Example 1), B-2-1 (Comparative Example 1), and DODAP (Comparative Example 2) as cationic lipids, MENDs having a composition of cationic lipid:SOPE:Chol=3:4:3 were prepared by the method described in [Experimental Example 1] (2). For the preparation, PEG2000DSG was used as PEG lipid, and MEND solutions corresponding to 0.55 mM of the lipid concentration were prepared. For cationic MEND, lipids having a composition of DOTAP:DOPE:Chol:=3:4:3 were used, and the cationic MEND was prepared according to the method described in [Experimental Example 1] (3).
HT1080 cells were plated on a 24-well plate at 4×10^4 cells/500 μL/well 24 hr before, various MENDs were diluted with DMEM (FBS 10%+) to a pDNA amount of 0.4 μg/500 μL/well and transfected. 24 hr later, the cells were washed with PBS(−) (500 μL), 1× Lysis buffer was added to each well by 75 μL, and the mixture was stood at −80° C. for 30 min or longer. The frozen 24-well plate was thawed on ice, the cells were detached with a cell scraper, and the total amount thereof was transferred into an Eppendorf tube and centrifuged under the conditions of 15000 rpm, 4° C., 5 min. The supernatant (50 μL) was recovered in a different Eppendorf tube, and used for luciferase assay and BCA assay.
20 μL thereof was mixed with a Luciferase assay substrate (50 μL), and the luciferase activity in a given time was measured by a luminometer. The obtained lysate was diluted 5-fold with DDW to achieve 25 μL total volume. Thereto was added BCA Protein Assay Reagent (200 μL), and the mixture was stood at 37° C. for 30 min. Thereafter, the absorbance at 562 nm was measured, and the protein amount of the sample was calculated from the absorbance of a BSA solution having a known concentration. The luciferase activity (RLU) was adjusted by dividing with protein amount (mg), and the luciferase activity per cell protein amount (RLU/mg protein) was calculated.
Using B-2 (Example 1), B-2-2 (Example 2), and B-2-3 (Example 3) as cationic lipids, MENDs having a composition of cationic lipid:SOPE:Chol=3:4:3 were prepared by the method described in [Experimental Example 1] (2). For the preparation, PEG2000DSG was used as PEG lipid, and MEND solutions corresponding to 0.55 mM of the lipid concentration were prepared. The gene expression was evaluated by the method described in [Example 4] (2).
Using compositions of B-2-4 (Example 4):DOPE:Chol=3:3:4, B-2-5 (Example 5):POPE:Chol=3:3:4, B-2 (Example 1):SOPE:Chol=5:3:2 as lipids, MENDs were prepared according to [Experimental Example 1](1) and (2). For the preparation, PEG2000-DMG was used as PEG lipid, and MEND solutions corresponding to 0.55 mM of the lipid concentration were prepared.
The gene expression activity was evaluated by the method described in [Experimental Example 4] (2).

[1] = Particle size and surface potential of pDNA-encapsulating MENDs, dynamic light scattering (Zetasizer Nano); type: physicochemical; conditions: pDNA MEND, cationic lipid:SOPE:Chol = 3:4:3
Method: A solution of pDNA encoding luciferase gene and protamine (CALBIOCHEM) solution were diluted with 10 mM HEPES buffer to 0.3 mg/mL and […], respectively. While stirring 0.3 mg/mL pDNA (125 μL), 0.24 mg/mL protamine (125 μL) was added dropwise in small portions to prepared an electrostatic complex of protamine and pDNA (N/P ratio=1.2) as a core of the vector. In the method described in the following (2), 10 mM HEPES buffer (pH 5.3) was used and, in the method described in (3), 10 mM HEPES buffer (pH 7.4) was used.
A lipid solution in ethanol was prepared by mixing 5 mM cationic lipid, 5 mM phospholipid and 5 mM cholesterol (Chol) at desired ratios to achieve 165 nmol total lipid in an Eppendorf tube, further adding various PEG lipids (1 mM solution in ethanol) in an amount corresponding to 3 mol % of the total lipid, and adding ethanol to achieve a total volume of 100 μL. While stirring the lipid solution in a vortex mixer, 100 μL of the nucleic acid electrostatic complex (10 mM HEPES; pH 5.3) prepared in [Experimental Example 1] (1) was quickly added, and thereafter 10 mM HEPES buffer (1.8 mL, adjusted to pH 5.3) was added to dilute the mixture to an ethanol concentration of 5%. The mixture was concentrated to about 50 μL by ultrafiltration using Amicon Ultra 4 (Millipore) under centrifugation conditions (room temperature, 2267 rpm, 20 min). Thereafter, it was diluted to 4 mL with 100 mM HEPES buffer (adjusted to pH 7.4), and again concentrated by centrifugation (2267 rpm, 20 min) under room temperature conditions. Finally, it was diluted with 10 mM HEPES buffer (pH 7.4) to a desired lipid concentration.
A solution of each lipid in chloroform (5 mM DOTAP 24.75 μL, 5 mM DOPE 33 μL, 5 mM Chol 24.75 μL) were mixed in a glass test tube at DOTAP:DOPE:Chol=3:4:3 to achieve 412.5 nmol total lipid. Ethanol was added to a total amount of 250 μL, and the mixture was dried under reduced pressure in a desiccator. The solvent was evaporated to give a lipid thin film. To the lipid thin film was added 250 μL of the gene electrostatic complex (in 10 mM HEPES; pH 7.4) prepared in [Experimental Example 1] (1) to a total lipid concentration of 1.65 mM, and the mixture was stood at room temperature for 10 min to allow for hydration, and sonicated by a sonicator (AIWA MEDICAL […] CO., LTD.) for 1 min.
The particle size and the surface potential were measured by the dynamic light scattering method (Zetasizer Nano; Malve Rn). The particle size and the surface potential of the various MENDs prepared by the preparation method of [Experimental Example 1] are shown in Table 3. The charge of B-2 and DODAP at physiological pH was in a preferable mode of −10 to +10 mV, whereas that of B-2-1 was +12.3, which is not less than +10 mV.
(1) MEND having a composition of B-2-4 (Example 4):DOPE:Chol=3:3:4 or B-2-5 (Example 5):POPE:Chol=3:4:3 was prepared according to the method described in [Experimental Example 1] (1) and (2).
The particle size and the surface potential were measured by the dynamic light scattering method (Zetasizer Nano; Malvern). The particle size and the surface potential of the various MENDs prepared by the preparation method of [Experimental Example 1] are shown in Table 4.

[2] = Particle size and surface potential of siRNA MENDs prepared by t-BuOH injecting method; type: physicochemical; conditions: siRNA MEND; for PDI / size (nm) / zeta (mV): cationic lipid/cholesterol=70/30, DMG-PEG2000 3%
Method: (§1) A lipid solution in t-BuOH with a composition of cationic lipid/cholesterol=70/30, DMG-PEG2000 3% and a total lipid amount of 3000 nmol/400 μL (7.5 mM) was prepared in a 1.7 mL tube. In a separate 1.7 mL tube, an siRNA solution was prepared by mixing an siRNA aqueous solution containing siRNA (160 μg) and 20 mM malate buffer (pH 4.00, 30 mM NaCl) to total 50 μL. With vigorous stirring of the lipid solution, the siRNA solution was gradually added dropwise, and the mixed solution was taken in a 1 mL syringe. Then, 20 mM malate buffer (pH 4.00, 30 mM NaCl, 2 mL) was added into a 5 mL tube, and the mixed solution was gradually injected with vigorous stirring. Thereafter, the mixture was further diluted with PBS (7 mL) and centrifuged at 1000 g, 30° C. for 10 min in Amicon Ultra-15-100K to a volume of less than 1.5 mL. PBS (15 mL) was added, and the solution was centrifuged again to about 500-1000 μL. Finally, the MEND solution was adjusted by diluting with PBS to the object lipid concentration.
The particle size and surface potential of various MENDs were measured according to the method described in [Experimental Example 2] and the results are shown in Table 6.

Factor VII (FVII) = test: Knockdown effect of siRNA-encapsulated MEND prepared by t-BuOH injecting method; type: in vivo, ICR mice; conditions: varying doses of siRNA, tail vein
Method: A MEND solution prepared by the method shown in [Experimental Example 28] was administered to 4-week-old male ICR mice at 3 mg siRNA/kg from the tail vein, and blood was collected 24 hr later. This blood sample was centrifuged at 1000 g, 10 min, 4° C., and the supernatant was recovered to obtain plasma. The amount of Factor VII (FVII) in the plasma was quantified by BIOPHEN FVII CHROMOGENIC ASSAY (HYPHEN BioMed).
as §1
MENDs prepared by the method shown in Experimental Example 32 were administered by a method similar to the method shown in Experimental Example 30 with varying doses of siRNA, and the knockdown effect was evaluated. The results are shown in FIG. 35, FIG. 36, and FIG. 37.

Compound | gene expression activity (luciferase activity per cell protein) (HT1080 cells) | PDI [1] | size (nm) [1] [nm] | zeta (mV) [1] [mV] | PDI [2] | size (nm) [2] [nm] | zeta (mV) [2] [mV] | FVII expression level (knockdown effect) (Factor VII (FVII)) | charge at physiological pH [2]
CCCCCCCCCCCCCCCCCC(=O)OCCCN(C)CCSSCCN(C)CCCOC(=O)CCCCCCCCCCCCCCCCC [Example B-2-2] | inferior to that of B-2, but exceeds that of conventional pH-responsive lipid cationic lipid, DODAP | 0.132 | 134.6 | −5.77 | – | – | – | – | –
CCCCC/C=C\C/C=C\CCCCCCCC(=O)OCCCN(C)CCSSCCN(C)CCCOC(=O)CCCCCCC/C=C\C/C=C\CCCCC [Example B-2-3] | inferior to that of B-2, but exceeds that of conventional pH-responsive lipid cationic lipid, DODAP | 0.091 | 148.7 | −7.97 | – | – | – | – | –
Cc1c(C)c2c(c(C)c1OC(=O)CCCC(=O)OCCCN(C)CCSSCCN(C)CCCOC(=O)CCCC(=O)Oc1c(C)c(C)c3c(c1C)CCC(C)(CCCC(C)CCCC(C)CCCC(C)C)O3)CCC(C)(CCCC(C)CCCC(C)CCCC(C)C)O2 (stereo not drawn) [TG-C3M] | – | – | – | – | 0.13 | 120 | −13.0 | – | –
CCN(CCCCOC(=O)CCC(=O)Oc1c(C)c(C)c2c(c1C)CCC(C)(CCCC(C)CCCC(C)CCCC(C)C)O2)CCSSCCN(CC)CCCCOC(=O)CCC(=O)Oc1c(C)c(C)c2c(c1C)CCC(C)(CCCC(C)CCCC(C)CCCC(C)C)O2 (stereo not drawn) [TS-C4E] | – | – | – | – | 0.07 | 118 | −9.8 | – | –
Cc1c(C)c2c(c(C)c1OC(=O)CCC(=O)OCCCCCN(CCSSCCN(CCCCCOC(=O)CCC(=O)Oc1c(C)c(C)c3c(c1C)CCC(C)(CCCC(C)CCCC(C)CCCC(C)C)O3)C(C)C)C(C)C)CCC(C)(CCCC(C)CCCC(C)CCCC(C)C)O2 (stereo not drawn) [TS-C5P] | – | – | – | – | 0.13 | 125 | −6.4 | – | –
Cc1c(C)c2c(c(C)c1OC(=O)CCC(=O)OCC1CCCCN1CCSSCCN1CCCCC1COC(=O)CCC(=O)Oc1c(C)c(C)c3c(c1C)CCC(C)(CCCC(C)CCCC(C)CCCC(C)C)O3)CCC(C)(CCCC(C)CCCC(C)CCCC(C)C)O2 (stereo not drawn) [TS-P2C1] | – | – | – | – | 0.12 | 114 | −12.2 | – | –
Cc1c(C)c2c(c(C)c1OC(=O)CCC(=O)OCC1CCCN(CCSSCCN3CCCC(COC(=O)CCC(=O)Oc4c(C)c(C)c5c(c4C)CCC(C)(CCCC(C)CCCC(C)CCCC(C)C)O5)C3)C1)CCC(C)(CCCC(C)CCCC(C)CCCC(C)C)O2 (stereo not drawn) [TS-P3C1] | – | – | – | – | 0.13 | 118 | −9.8 | – | –
Cc1c(C)c2c(c(C)c1OC(=O)CCC(=O)OCC1CCN(CCSSCCN3CCC(COC(=O)CCC(=O)Oc4c(C)c(C)c5c(c4C)CCC(C)(CCCC(C)CCCC(C)CCCC(C)C)O5)CC3)CC1)CCC(C)(CCCC(C)CCCC(C)CCCC(C)C)O2 (stereo not drawn) [TS-P4C1] | – | – | – | – | 0.13 | 113 | −11.9 | highest knockdown effect | –
Cc1c(C)c2c(c(C)c1OC(=O)CCC(=O)OCCC1CCN(CCSSCCN3CCC(CCOC(=O)CCC(=O)Oc4c(C)c(C)c5c(c4C)CCC(C)(CCCC(C)CCCC(C)CCCC(C)C)O5)CC3)CC1)CCC(C)(CCCC(C)CCCC(C)CCCC(C)C)O2 (stereo not drawn) [TS-P4C2] | – | – | – | – | 0.07 | 125 | −8.5 | highest knockdown effect | –
Cc1c(C)c2c(c(C)c1OC(=O)CCC(=O)OCCCC1CCN(CCSSCCN3CCC(CCCOC(=O)CCC(=O)Oc4c(C)c(C)c5c(c4C)CCC(C)(CCCC(C)CCCC(C)CCCC(C)C)O5)CC3)CC1)CCC(C)(CCCC(C)CCCC(C)CCCC(C)C)O2 (stereo not drawn) [TS-P4C3] | – | – | – | – | 0.09 | 123 | −6.6 | highest knockdown effect | –
Cc1c(C)c2c(c(C)c1OC(=O)CCC(=O)NCCCN(C)CCSSCCN(C)CCCNC(=O)CCC(=O)Oc1c(C)c(C)c3c(c1C)CCC(C)(CCCC(C)CCCC(C)CCCC(C)C)O3)CCC(C)(CCCC(C)CCCC(C)CCCC(C)C)O2 (stereo not drawn) [TSamide-C3M] | – | – | – | – | 0.21 | 93 | 7.0 | – | weak positive charge
